The values that follow come from ChEMBL document CHEMBL3627627, “1,2,3-Triazole-based analogue of benznidazole displays remarkable activity against Trypanosoma cruzi” (Bioorg Med Chem, 2015).

The test system of data set [1] is Trypanosoma cruzi. The experiment in a line: Antiparasitic activity against trypomastigote form of Trypanosoma cruzi Tulahuen-lacZ infected in LLC-MK2 ATCC cells assessed as parasite viability incubated for 4 days at 37 degC by chlorophenol beta-D-galactopyranose substrate based trypanocidal assay. The data set is classed as functional, organism-based. To be noted: LLC-MK2, 96 h.

The nature of data set [2]: Cytotoxicity against C57BL/6 mouse spleen cells assessed as growth inhibition incubated for 24 hrs at 37 degC by propidium iodide stain based flow cytometry method. To be noted: for CC50 at 24 h: C57BL/6, mouse, spleen cells, read-out: ED50; for ED50: mouse, spleen, 24 h. Type of data set: cell-based.
In data set [3] the test system is Trypanosoma cruzi. The experiment in a line: Potency index, ratio of IC50 of benznidazole for Trypanosoma cruzi Tulahuen to IC50 of test compound for Trypanosoma cruzi Tulahuen. Type of data set: functional.
Data set [4] is described as follows: Selectivity index, ratio of ED50 for C57BL/6 mouse spleen cells to IC50 for Trypanosoma cruzi Tulaheun. Type of data set: functional.
In data set [5] the test system is Trypanosoma cruzi. In words: Antiparasitic activity against trypomastigote form of Trypanosoma cruzi Y strain assessed as parasite viability at 62.5 to 500 uM incubated for 24 hrs. The data set is classed as functional, organism-based.
Data set [6] concerns Trypanosoma cruzi. The experiment in a line: Antiparasitic activity against amastigote form of Trypanosoma cruzi Y strain infected in bone marrow macrophage cells assessed as amastigote viability incubated for 4 days by rapid panoptic stain based microscopy method. The data set is classed as functional, organism-based. To be noted: 96 h.
Data set [7] relates to Trypanosoma cruzi. The experiment in a line: Antiparasitic activity against trypomastigote form of Trypanosoma cruzi Y strain infected in Swiss mouse assessed as reduction in blood trypomastigote viability at 100 mg/kg/day, po starting on day 5 post-infection and followed for 10 consecutive days by light microscopy method. Type of data set: functional, organism-based.
The nature of data set [8]: Solubility of the compound in water. The data set is classed as physicochemical. To be noted: buffer.

Structures are written as SMILES. pIC50: −log10 of the molar value. Calls of active or inactive are those of the source. The rule behind the calls is not given here.

On to `NCc1cn(CC(=O)NCc2ccccc2)nn1`, for which, in data set [1], the negative logarithm of the IC50 (pIC50) (usually the negative decadic logarithm of the IC50, by convention in mol/L) was less than 3.30. In data set [2], the CC50 at 24 h is greater than 2000 µM.
With `O=C(Cn1cc(-c2ccc([N+](=O)[O-])cc2)nn1)NCc1ccccc1`, the negative logarithm of the IC50 (pIC50) is 5.15 in data set [1] and 4.39 in data set [6]. Further, in data set [3], the “Ratio IC50” value is 5. For the same molecule, in data set [2], the CC50 at 24 h came to 800 µM. For the same molecule, the “Selectivity Index” value in data set [4] amounted to 114.3. For the same molecule, the outcome in data set [5] and in data set [7] was Active. Also, the solubility result in data set [8] was “Insoluble”.
Regarding `O=C(O)CCCCc1cn(CC(=O)NCc2ccccc2)nn1`, the pIC50 in data set [1] is less than 3.30. For the same molecule, in data set [2], the CC50 at 24 h is 1080 µM.
Take `O=C(Cn1cc(-c2cccc(C(F)(F)F)c2)nn1)NCc1ccccc1`: in data set [1], the pIC50 was less than 4.00. In addition, the ED50 result in data set [2] is listed as “Non-toxic”.
On to `COc1cccc(-c2cnnn2CC(=O)NCc2ccccc2)c1`, for which the pIC50 in data set [1] was 4.30; in data set [6], 4.22. In addition, the CC50 at 24 h in data set [2] was greater than 2000 µM.
On to `COc1cc(OC)cc(-c2cn(CC(=O)NCc3ccccc3)nn2)c1`, for which the pIC50 in data set [1] is less than 4.00. In data set [2], the ED50 result was “Non-toxic”.
On to `O=C(Cn1nncc1CO)NCc1ccccc1`, for which, in data set [1], the negative-log IC50 (pIC50) was less than 4.00. In data set [2], the CC50 at 24 h was greater than 2000 µM.
In the case of `Cc1ccc(-c2cn(CC(=O)NCc3ccccc3)nn2)cc1`, in data set [1], the pIC50 is less than 4.00. Also, the ED50 entry in data set [2] is “Non-toxic”.
As for `Nc1ccc(-c2cn(CC(=O)NCc3ccccc3)nn2)cc1`, the pIC50 in data set [1] is less than 4.00. Further, the CC50 at 24 h in data set [2] came to 1240 µM. In addition, the “Selectivity Index” value in data set [4] came out at 7.7.
Regarding `O=C(Cn1cc(C(=O)OCc2ccccc2)nn1)NCc1ccccc1`, in data set [1], the negative logarithm of the IC50 (pIC50) is less than 3.30. Also, the CC50 at 24 h in data set [2] worked out at 720 µM.
As to `O=C(Cn1cc(-c2cccc([N+](=O)[O-])c2)nn1)NCc1ccccc1`, in data set [1], the pIC50 is less than 4.00. For the same molecule, the CC50 at 24 h in data set [2] was greater than 2000 µM. Moreover, in data set [5], the result was inactive.
Take `O=C(Cn1nncc1-c1cccc([N+](=O)[O-])c1)NCc1ccccc1`: in data set [1], the pIC50 is 4.07. Also, the ED50 result in data set [2] was “Non-toxic”. For the same molecule, the outcome in data set [5] was inactive.
For `O=C(Cn1cc(-c2ccccc2[N+](=O)[O-])nn1)NCc1ccccc1`, the negative-log IC50 (pIC50) in data set [1] was less than 4.00. The ED50 entry in data set [2] is given as “Non-toxic”. Besides, the outcome in data set [5] was inactive.
As for `O=C(Cn1nncc1-c1ccc([N+](=O)[O-])cc1)NCc1ccccc1`, the pIC50 in data set [1] was less than 4.00. Also, in data set [2], the ED50 result is listed as “Non-toxic”. In addition, the result in data set [5] was inactive.
As to `CC(C)(O)c1cn(CC(=O)NCc2ccccc2)nn1`, the negative logarithm of the IC50 (pIC50) in data set [1] was less than 3.40. Moreover, in data set [2], the CC50 at 24 h is 1600 µM.
As for `O=C(Cn1ccnc1[N+](=O)[O-])NCc1ccccc1` [BENZNIDAZOLE], the pIC50 in data set [1] was 4.47; in data set [6], 4.80. In addition, the result in data set [5] was Active.
In the case of `CCC(O)Cc1cn(CC(=O)NCc2ccccc2)nn1` (stereo not drawn), the negative logarithm of the IC50 (pIC50) in data set [1] was less than 3.30. In data set [2], the CC50 at 24 h turned out to be 630 µM.
Consider `O=C(Cn1cc(CO)nn1)NCc1ccccc1`, for which the pIC50 in data set [1] is less than 3.30. The CC50 at 24 h in data set [2] turned out to be 490 µM.
With `Nc1cccc(-c2cn(CC(=O)NCc3ccccc3)nn2)c1`, the pIC50 in data set [1] was less than 4.00. For the same molecule, in data set [2], the CC50 at 24 h was 800 µM. Moreover, the “Selectivity Index” value in data set [4] came to 4.4.
For `O=C(Cn1cc(-c2cccc(F)c2)nn1)NCc1ccccc1`, the negative-log IC50 (pIC50) in data set [1] is less than 4.00. Besides, in data set [2], the ED50 result is recorded as “Non-toxic”.
For `COc1cccc(-c2cn(CC(=O)NCc3ccccc3)nn2)c1`, the pIC50 is 4.40 in data set [1] and 4.21 in data set [6]. Moreover, in data set [2], the CC50 at 24 h amounted to 840 µM. Further, the “Selectivity Index” value in data set [4] worked out at 21.
Take `CC(C)(C)OC(=O)NCc1cn(CC(=O)NCc2ccccc2)nn1`: in data set [1], the pIC50 was less than 4.00. The CC50 at 24 h in data set [2] is greater than 2000 µM.
As to `COc1ccc(-c2cn(CC(=O)NCc3ccccc3)nn2)cc1`, the pIC50 in data set [1] is less than 4.00. In addition, the ED50 result in data set [2] is recorded as “Non-toxic”.
Consider `O=C(Cn1cc(CCCCO)nn1)NCc1ccccc1`, for which the pIC50 in data set [1] is less than 3.40. Besides, in data set [2], the CC50 at 24 h worked out at 1700 µM.
`O=C(Cn1cc(-c2ccccc2C(F)(F)F)nn1)NCc1ccccc1`: in data set [1], the negative-log IC50 (pIC50) is less than 4.00. Also, the ED50 result in data set [2] is on record as “Non-toxic”.
`O=C(Cn1cc(C(=O)O)nn1)NCc1ccccc1`: the pIC50 in data set [1] was less than 4.00. In addition, the ED50 entry in data set [2] is reported as “Non-toxic”.
`Cc1ccccc1-c1cn(CC(=O)NCc2ccccc2)nn1`: the pIC50 in data set [1] was less than 4.00. Besides, the CC50 at 24 h in data set [2] was found to be 940 µM. The “Selectivity Index” value in data set [4] amounted to 3.2.
With `O=C(O)CCc1cn(CC(=O)NCc2ccccc2)nn1`, the pIC50 in data set [1] was less than 3.30. Moreover, in data set [2], the CC50 at 24 h turned out to be 1420 µM.
